{"source": "patent US20170159129A1", "about": "“METHODS FOR DETECTING TELOMERE MAINTENANCE MECHANISMS” (priority 2015, published 2017)", "test_system": "ALT+ cell lines U2OS, Saos-2 and G-292", "test": "Flow-FISH G to C ratio assay for inhibition of ALT activity in ALT+ cell lines", "format": "cell-based", "conditions": "ALT+ cell lines incubated with 3 mM HU for 48 hours; untreated ALT+ lines above 0.8; ratio below 0.8 indicates a decrease in ALT activity", "excerpt": "The present disclosure is directed to a novel improvement of flow-FISH that has been adapted for quantifying ALT activity in a cell. Briefly, cells to be analyzed are first mixed with an internal standard for telomeric DNA content. In one embodiment, the 1301 cell line, a T-cell leukemia cell line with long homogeneous telomeres is used. In other embodiments, flow cytometry microbeads with telomeric oligonucleotides can also be used to provide a standard. […] In some embodiments, the labels have the same fluorescence and stability characteristics (e.g. FITC). In other embodiments, the labels for the two probes may be different and have different fluorescence and stability characteristics. […] After incubation, cells are washed in flow cytometry staining buffer and then analyzed by flow cytometry.\nRelative C-strand content and relative G-strand content of the sample cells is determined, and a ratio of G content to C content calculated. First, the mean fluorescence of the probes is measured for both sample cells and standard. […] The fluorescent marker in the standard allows for identification of the internal standard and separation of its Tel G and Tel C probe fluorescence. […]", "data": [{"compound": "NC(=O)NO", "note": "[hydroxyurea]", "values": [{"measurement": "G to C ratio (relative telomeric G content to C content, relative to 1301 cell standard)", "value": "below 0.8"}]}]}
